pEC50, pKi: −log10 of the molar value. Numbered stars: 1 amine (or outer) side, 2 acyl side, 3 side chain; on linkers, the order of the positions; unused ones are H or OH. Bridge positions count the residues as written; N and C are the ends. Side chains are listed from the residue outwards. Peptide text beside a SMILES is read from it. * marks the point of attachment. X3 = CC[N+]1=C(/C=C/C=C/C=C2/N(CCCCCC(=O)*)c3ccc4c(S(=O)(=O)O)cc(S(=O)(=O)O)cc4c3C2(C)C)C(C)(C)c2c1ccc1c(S(=O)(=O)O)cc(S(=O)(=O)O)cc21; X4 = CC1=[N+]([O-])[Tc]23(=[O])(=[O])[N](CCC(CCN*)CC[N]2C(C)(C)C(C)=[N+]3[O-])C1(C)C; Glutaryl = O=C(CCCC(=O)[*:2])[*:1]
What was measured:
EA-Hy926 membranes = test: Competitive binding assay with 125I-echistatin on EA-Hy926 membranes; parameters: species or system human
Description: The inhibition constant of Compound 6 was measured using a previously-described membrane binding assay (Indrevoll et al, Bioorg & Med Chem Lett, 2006, 16, 6190-6193).
In brief, membranes from the human endothelial adenocarcinoma cell line EA-Hy926 were prepared and the Kd calculated for the purified membrane fraction. A competitive binding assay was then established to measure inhibition constants for cold Compound 6. ^125I-echistatin was used as the labelled ligand and cold echistatin as a reference standard.
A total of sixteen dilutions of cold test compound (either cold echistatin or cold Compound 6) were prepared and mixed with a combination of ^125I-echistatin and membrane prior to incubation for 1 hour at 37° C. Following several washes, the bound material was harvested on a filter using a Skatron micro harvester. The filterspots were finally excised and counted in a Packard γ-counter.
The inhibition constants for Compound 3 and Compound 8 were determined using the method described in Example 1. FIG. 3 illustrates binding of ^125I-echistatin versus cold Compound 3, Compound 8 and echistatin on EA-Hy926 membranes.

[1] = tested on: Activated human hepatic stellate cells, LX-2; test: Binding to activated human hepatic stellate cells LX-2
Description: Activated human hepatic stellate cells, LX-2 (provided by Prof. Scott L. Friedman, Mount Sinai School of Medicine, New York), were cultured in 12-well plates (Nunc) to confluence in Dulbeccos Modified Eagels Medium containing 10% FBS, streptomycin and glutamine. The cells were washed twice in a cold buffer containing 50 mM Tris, pH 7.4, 150 mM NaCl, 5 mM MnCl2, 1 mM CaCl2 and 0.01% BSA. The cells were further incubated in the buffer containing a trace amount of labelled compound (either 0.1 nM ^125I Compound 6 or 0.1 nM ^125I-echistatin) together with various concentrations of cold compound for 60 min at 4° C. with shaking. Following incubation, the unbound material was removed by washing the cells 3 times with cold buffer. The cells were detached from the wells by adding 0.1M NaOH and transferred to a tube to be counted in a gamma-counter (Packard). FIG. 2 illustrates the observed activity values.

[2] = tested on: fibrogenic livers in BDL model; test: Liver uptake in BDL vs sham rats at 15 days post-op, vs negative control; type: in vivo, rat; conditions: one hour post-injection
Description: On the appropriate day post surgery BDL and sham animals were removed and put under isoflurane anaesthesia, then each animal was injected with 0.3 ml intravenously (i.v.) via tail vein (˜3MBq). At the appropriate time point post-injection of the test item, each animal was re-anaesthetised with isoflurane, sacrificed by cervical dislocation weighed and the weight recorded via a barcode scanning system. Each animal was dissected and the following organs and tissues were removed and counted using BASIL counter protocol 40 or manual counting:
The BDL and sham animal models were set up as described in Example 3. At 15 days post-operatively, one of Compound 3, Compound 8 or a negative control was administered to each animal and liver uptake assessed as described in Example 3.

N=C(N)NCCC[C@@H]1NC(=O)[C@@H]2CSSC[C@H](NC(=O)[C@H](CC(=O)O)NC(=O)CNC1=O)C(=O)N[C@@H](Cc1ccccc1)C(=O)N[C@H](C(=O)NCCOCCOCCOCCNC(=O)COCC(N)=O)CSCC(=O)N[C@@H](CCCCNC(=O)c1cccc([123I])c1)C(=O)N2 [Compound 6]
Binding to EA-Hy926 membranes (in words) (EA-Hy926 membranes): binding specifically
pKi (EA-Hy926 membranes; cold compound vs 125I-echistatin, 1 hour at 37° C., read-out: Ki in the EA-Hy926 membrane assay): ~8.00
Binding to activated human hepatic stellate cells (in words) [1]: binding specifically
pEC50 ([1]; 0.1 nM 125I labelled compound plus cold compound, 60 min at 4° C., read-out: EC50 in the LX-2 cell assay): ~9.00

CC[N+]1=C(/C=C/C=C/C=C2/N(CCCCCC(=O)NCCCC[C@@H]3NC(=O)CSC[C@@H](C(=O)NCC(=O)N[C@@H](CCCCNC(=O)CCCC(=O)NCCC4CC[N]5C(C)(C)C(C)=[N+]([O-])[Tc]56(=[O])(=[O])[N](CC4)C(C)(C)C(C)=[N+]6[O-])C(N)=O)NC(=O)[C@H](CCCNC(=N)N)NC(=O)[C@@H]4CSSC[C@H](NC3=O)C(=O)NCC(=O)N[C@@H](CC(=O)O)C(=O)N[C@@H](Cc3ccccc3)C(=O)N4)c3ccc4c(S(=O)(=O)O)cc(S(=O)(=O)O)cc4c3C2(C)C)C(C)(C)c2c1ccc1c(S(=O)(=O)O)cc(S(=O)(=O)O)cc21 (some centres unmarked) [negative control, reference compound] ({CH2CO}-K(X3)CGDFCRCGK([Glutaryl-X4])-NH2; disulfide 2-6; thioether N-8)
Liver retention/uptake in BDL compared to sham animals (in words) [2]: no significant difference

Source: US8834843B2, “Imaging method” (GE Healthcare Limited, priority 2007, dated 2014)
